pEC50, pIC50: −log10 of the molar value. Like-named read-outs stand apart in the source and are kept apart here. Values belong to the molecule of their own block, whether it stands above or below them.
What was measured:
CBP = CBP (Homo sapiens, UniProt Q92793); experiment: C646 titration of CBP acetylation of H3/H4 under kcat conditions; assay type: biochemical
BxPC3 cells = experiment: Histone acetylation in BxPC3 cells after drug treatment; assay type: cell-based, human; conditions: for pEC50: read-out: apparent EC50 for activation; for Mean fold-change in acetylation: TSA 0.5 μM

Sequence of CBP (Q92793 whole entry): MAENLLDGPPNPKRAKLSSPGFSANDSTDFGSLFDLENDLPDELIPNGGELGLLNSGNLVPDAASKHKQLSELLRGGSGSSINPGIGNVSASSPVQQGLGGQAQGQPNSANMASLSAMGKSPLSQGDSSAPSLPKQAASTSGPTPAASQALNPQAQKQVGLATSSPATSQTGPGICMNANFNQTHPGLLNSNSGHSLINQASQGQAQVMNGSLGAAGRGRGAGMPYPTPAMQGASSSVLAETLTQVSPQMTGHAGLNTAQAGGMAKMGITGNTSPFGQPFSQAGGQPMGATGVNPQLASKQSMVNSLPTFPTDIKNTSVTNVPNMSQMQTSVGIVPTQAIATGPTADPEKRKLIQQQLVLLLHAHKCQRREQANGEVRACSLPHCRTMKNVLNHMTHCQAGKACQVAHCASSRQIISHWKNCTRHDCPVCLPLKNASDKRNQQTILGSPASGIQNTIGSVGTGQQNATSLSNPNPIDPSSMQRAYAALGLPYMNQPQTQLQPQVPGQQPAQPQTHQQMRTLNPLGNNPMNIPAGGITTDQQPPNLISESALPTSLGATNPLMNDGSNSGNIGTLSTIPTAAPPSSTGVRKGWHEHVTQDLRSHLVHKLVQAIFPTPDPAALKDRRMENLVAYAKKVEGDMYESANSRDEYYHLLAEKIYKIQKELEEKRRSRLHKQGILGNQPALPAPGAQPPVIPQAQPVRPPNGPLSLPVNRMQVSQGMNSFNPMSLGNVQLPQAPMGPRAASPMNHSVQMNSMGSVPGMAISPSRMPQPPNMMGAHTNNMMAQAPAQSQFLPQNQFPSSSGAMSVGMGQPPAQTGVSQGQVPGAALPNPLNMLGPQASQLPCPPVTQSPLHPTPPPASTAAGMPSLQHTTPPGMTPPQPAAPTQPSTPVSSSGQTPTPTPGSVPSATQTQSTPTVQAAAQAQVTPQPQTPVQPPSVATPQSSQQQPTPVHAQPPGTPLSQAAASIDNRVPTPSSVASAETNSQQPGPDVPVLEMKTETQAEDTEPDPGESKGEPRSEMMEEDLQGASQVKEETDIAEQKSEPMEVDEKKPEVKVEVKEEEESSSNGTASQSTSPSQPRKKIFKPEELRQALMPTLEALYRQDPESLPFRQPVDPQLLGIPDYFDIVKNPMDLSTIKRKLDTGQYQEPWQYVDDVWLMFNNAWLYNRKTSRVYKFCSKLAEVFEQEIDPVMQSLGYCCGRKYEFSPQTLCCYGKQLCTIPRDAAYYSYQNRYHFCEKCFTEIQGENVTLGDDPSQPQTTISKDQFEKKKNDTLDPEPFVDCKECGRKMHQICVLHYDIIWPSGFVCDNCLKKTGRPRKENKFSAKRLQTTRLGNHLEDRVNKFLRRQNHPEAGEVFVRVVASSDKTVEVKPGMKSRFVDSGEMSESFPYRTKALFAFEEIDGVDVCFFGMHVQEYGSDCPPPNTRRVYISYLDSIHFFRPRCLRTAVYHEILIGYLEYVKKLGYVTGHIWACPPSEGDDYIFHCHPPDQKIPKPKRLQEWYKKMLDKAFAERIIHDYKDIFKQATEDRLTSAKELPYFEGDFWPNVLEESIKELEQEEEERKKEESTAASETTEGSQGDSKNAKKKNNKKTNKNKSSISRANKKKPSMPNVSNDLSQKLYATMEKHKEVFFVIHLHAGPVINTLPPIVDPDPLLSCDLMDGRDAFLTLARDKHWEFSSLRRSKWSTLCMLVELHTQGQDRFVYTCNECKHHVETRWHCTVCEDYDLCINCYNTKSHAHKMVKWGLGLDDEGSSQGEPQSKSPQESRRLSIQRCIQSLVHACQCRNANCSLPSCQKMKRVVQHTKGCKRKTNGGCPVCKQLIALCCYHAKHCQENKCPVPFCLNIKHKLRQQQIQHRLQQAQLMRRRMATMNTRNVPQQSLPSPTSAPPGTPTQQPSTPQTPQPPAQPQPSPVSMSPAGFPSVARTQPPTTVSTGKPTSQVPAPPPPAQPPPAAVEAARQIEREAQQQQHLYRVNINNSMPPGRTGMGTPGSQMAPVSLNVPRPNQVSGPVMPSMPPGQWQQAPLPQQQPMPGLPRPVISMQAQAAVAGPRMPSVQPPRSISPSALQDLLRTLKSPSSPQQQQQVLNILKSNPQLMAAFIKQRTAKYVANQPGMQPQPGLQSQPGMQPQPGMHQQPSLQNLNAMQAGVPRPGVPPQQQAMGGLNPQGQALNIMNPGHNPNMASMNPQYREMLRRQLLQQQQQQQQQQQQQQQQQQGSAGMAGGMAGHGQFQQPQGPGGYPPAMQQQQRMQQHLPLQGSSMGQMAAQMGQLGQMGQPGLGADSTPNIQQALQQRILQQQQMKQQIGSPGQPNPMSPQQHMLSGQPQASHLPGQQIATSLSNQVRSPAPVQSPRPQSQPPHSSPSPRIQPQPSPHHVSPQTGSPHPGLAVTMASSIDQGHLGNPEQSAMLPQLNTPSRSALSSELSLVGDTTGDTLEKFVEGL

C646 concentration range inhibiting CBP (CBP; compared with p300): within the nanomolar range
effect of C646 on CBP acetylation activity (CBP; kcat conditions, other sites mainly displayed an inhibitory effect): biphasic dependence for H3K18
pEC50 (BxPC3 cells; site H3K18, 4 hours): ~6.40
pEC50 (BxPC3 cells; site H3K23, 4 hours): ~6.40
pIC50 (BxPC3 cells; read-out: apparent IC50 of inhibition, site H3K18, 4 hours): ~5.17
Structure (SMILES): CC1=NN(c2ccc(C(=O)O)cc2)C(=O)/C1=C\c1ccc(-c2cc(C)c(C)cc2[N+](=O)[O-])o1 [C646]
stimulation of acetylation in parental BxPC3 cells (BxPC3 cells; parental cells, compared with p300-depleted cells): ≤ 2.5 fold

Structure (SMILES): CC(C)(CCCCCCCCCCC(C)(C)CC(=O)O)CC(=O)O [MEDICA 16, beta, beta’-tetramethylhexadecanedioic acid]
effect of MEDICA 16 pretreatment on the acetylation response to C646 (BxPC3 cells; 5 μM MEDICA 16 for 24 hours prior to […] C646): muted stimulatory response to C646

Structure (SMILES): CC(/C=C/C(=O)NO)=C\[C@@H](C)C(=O)c1ccc(N(C)C)cc1 [TSA]
Mean fold-change in acetylation (BxPC3 cells; site H3K9, 4 hours, after 16 hours of serum starvation): 3.02 fold
Mean fold-change in acetylation (BxPC3 cells; site H3K9, 4 hours, no starvation): 68.56 fold
increase of acetylation relative to C646 (BxPC3 cells; site H3K9, TSA versus C646): 42 fold
Mean fold-change in acetylation (BxPC3 cells; site H3K14, 4 hours, after 16 hours of serum starvation): 1.65 fold
Mean fold-change in acetylation (BxPC3 cells; site H3K14, 4 hours, no starvation): 2.412 fold
Mean fold-change in acetylation (BxPC3 cells; site H3K18, 4 hours, after 16 hours of serum starvation): 1.94 fold
Mean fold-change in acetylation (BxPC3 cells; site H3K23, 4 hours, after 16 hours of serum starvation): 1.78 fold
Mean fold-change in acetylation (BxPC3 cells; site H3K23, 4 hours, no starvation): 2.83 fold

Source: publication PMC4327817 (ACS chemical biology, 2014)
